Values of other authors, collected in patent publication US20110312981A1, “PREDICTIVE MARKER FOR EGFR INHIBITOR TREATMENT” (priority 2007, published 2011).

Legend:
[1] = tested on: NSCLC patients for whom standard therapy for advanced disease has failed; details: single agent, versus placebo, BR.21
[2] = patients with cancer receiving the 150 mg/day dose
patients with NSCLC = details: second line after cisplatin-based first-line regimens failed; ECOG 0, 1 or 2; versus best supportive care
NSCLC = details: second line therapy of NSCLC

## C#Cc1cccc(Nc2ncnc3cc(OCCOC)c(OCCOC)cc23)c1 [Tarceva, erlotinib]
[1]
  survival: significantly prolongs and improves the survival
[2]
  drug levels in plasma: > 500 ng/mL

## CC(=O)O[C@@]12CO[C@@H]1C[C@H](O)[C@@]1(C)C(=O)[C@H](O)C3=C(C)[C@@H](OC(=O)[C@H](O)[C@@H](NC(=O)OC(C)(C)C)c4ccccc4)C[C@@](O)([C@@H](OC(=O)c4ccccc4)[C@H]21)C3(C)C [docetaxel]
Patients with NSCLC
  survival: improved survival

## Nc1nc2[nH]cc(CCc3ccc(C(=O)N[C@@H](CCC(=O)O)C(=O)O)cc3)c2c(=O)[nH]1 [pemetrexed]
NSCLC
  efficacy compared with docetaxel: clinically equivalent efficacy
  side effects compared with docetaxel: significantly fewer side effects
